The text below walks through data of patent US20080269213A1, “8-Hydroxyquinoline compounds and methods thereof” (Wyeth, priority 2006, published 2008).

By IC50 is commonly meant the concentration that gives 50% inhibition. Broadly, the Ki is the equilibrium dissociation constant of an inhibitor or competing ligand from its target.

Test [1] addresses T1, recombinant human Aggrecanase-2 Agg2-Phe628 (Homo sapiens, UniProt Q9UNA0).
T1 sequence (Q9UNA0 262-628 limits assumed): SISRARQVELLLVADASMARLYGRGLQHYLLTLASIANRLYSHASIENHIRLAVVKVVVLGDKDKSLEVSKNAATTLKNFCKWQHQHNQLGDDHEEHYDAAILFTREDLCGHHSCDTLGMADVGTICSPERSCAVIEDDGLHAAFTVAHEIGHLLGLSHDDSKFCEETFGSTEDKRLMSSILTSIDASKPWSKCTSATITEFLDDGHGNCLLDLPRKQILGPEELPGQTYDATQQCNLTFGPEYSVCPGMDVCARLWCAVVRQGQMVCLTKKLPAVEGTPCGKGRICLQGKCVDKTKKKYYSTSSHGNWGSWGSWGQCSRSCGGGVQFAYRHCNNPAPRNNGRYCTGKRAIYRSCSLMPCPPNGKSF
Put plainly: Aggrecanase 2 enzyme fluorescence polarization assay. In kind it is binding. On the set-up: recombinant human Aggrecanase-2, Agg2-Phe628 (41737 Da); This is a truncated form of full-length human aggrecanase-2; made in house. The source says:
The fluorescence polarization assay is used to determine the dissociation constant of the enzyme:inhibitor complex (Ki) and the binding interaction mode (competitive, non-competitive or uncompetitive) of reversible inhibitors. The fluorescence polarization assay monitors the rotational motion of the fluorescent ligand. In the free state the fluorescent ligand has high rotational motion corresponding to a low polarization value and when fully bound to the protein, the fluorescent ligand has a lower rotational motion, corresponding to a higher polarization value. […]
Stock solutions of the fluorescent ligand are prepared in 100% DMSO and aliquots are stored at −80° C. The stock concentration was determined by a NMR ratio method, comparing the area under the control compound peak (TSP; trimethyl silyl proprionate sodium salt) to the area under a well-defined sample peak.
To determine the dissociation constant between Aggrecanase-2 and Compound C, saturation experiments were performed by adding various concentrations of aggrecanase to a constant concentration of Compound C (2 nM), in the assay buffer 50 mM HEPES-NaOH (pH 7.4), 100 mM NaCl, 5 mM CaCl2, 0.005% Brij-35. Anisotropy values were calculated and converted to fraction bound values as described in the data analysis section below. […] The equilibrium dissociation constant was determined to be 60+/−2.9 nM. […]
Background: In fluorescence polarisation assays a small probe gives low polarisation when free and higher when bound to something large.

The target in test [2] is T1, recombinant human Aggrecanase-2 Agg2-Phe628. Put plainly: Aggrecanase 2 in vitro enzyme assay (Agg-2 FRET, quenched fluorescent peptide substrate). As to conditions: established value of positive control; read-out: IC50 for rAgg-2. On the set-up: purified recombinant human Aggrecanase-2 Agg2-Phe628 (MW=41,737); This is a truncated form of full-length human aggrecanase-2; made in house; host or cells: CHO cells. The test is classed as biochemical. The essentials: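 Kinetic fluorescence (λex 340, λem 420 nm) monitored over 40 min at 30 °C after adding 25 μM final Abz/Dnp brevican-based quenched peptide. Enzyme: recombinant truncated human Agg2-Phe628 from CHO, 0.5 μg/ml final, mixed with inhibitor first; buffer HEPES pH 7.5 with NaCl, CaCl2, CHAPS, glycerol; compounds in duplicate.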

Consider `CN([C@H](CCCCCNC(=O)c1ccc(-c2c3cc(F)c(=O)cc-3oc3cc(O)c(F)cc23)c(C(=O)O)c1)C(=O)NO)S(=O)(=O)c1ccc(OCc2ccccc2)cc1` [Compound C], for which the Kd in test [1] (saturation experiment, 2 nM ligand, read-out: equilibrium dissociation constant between Aggrecanase-2 and fluorescent ligand) came to 60 nM.

For `CN([C@H](CCCCNC(=O)OC(C)(C)C)C(=O)NO)S(=O)(=O)c1ccc(OCc2ccccc2)cc1` [Compound B, reference compound], the IC50 in test [2] turned out to be 37 nM. Further, the Ki in test [1] (established value of positive control, read-out: Ki for rAgg-2) was found to be 39 nM.
